Reference: patent US7282556B2, “Polynucleotides and polypeptides relating to the modulation of SIRPα-CD47” (Emory University, priority 2001, dated 2007)
Values after ≈ are worked out from the molar mass of the structure shown. Where a SMILES comes first, the peptide text is derived from it. Bridges are numbered along the chain shown (N, C = ends).

Experiments:
[1] = Solubility of synthesized peptides in aqueous phase; assay type: physicochemical; details: for solubility: in aqueous phase
SIRPβ-GST = molecular target: T1, SIRPβ-GST (Homo sapiens, UniProt O00241); experiment: CD47-AP binding to SIRPβ-GST coated wells; details: FIG. 2C
T1 construct: The extracellular domain of SIRPα1, SIRPβ1 and GST fusion proteins were produced after transfected into 293E cells; made in house; host or cells: 293E cells
T1 sequence (O00241 30-371 limits assumed): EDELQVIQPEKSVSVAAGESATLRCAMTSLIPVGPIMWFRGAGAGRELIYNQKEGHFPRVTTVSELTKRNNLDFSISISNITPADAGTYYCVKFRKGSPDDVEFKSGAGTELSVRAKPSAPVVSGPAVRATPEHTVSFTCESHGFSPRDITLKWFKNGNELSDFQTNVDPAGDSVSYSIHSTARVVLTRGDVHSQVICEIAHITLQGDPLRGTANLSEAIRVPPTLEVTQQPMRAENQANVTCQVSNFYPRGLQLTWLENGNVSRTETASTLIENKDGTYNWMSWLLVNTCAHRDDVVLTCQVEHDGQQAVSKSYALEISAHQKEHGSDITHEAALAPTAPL
Experimental: (§1) FIG. 2C (right panel) is a bar graph that illustrates CD47-AP specifically binds to SIRPα-GST fusion protein but not SIRPβ-GST. In this panel, microtiter plates were coated with either SIRPα-GST or highly similar SIRPβ-GST (10 μg/ml) followed by blocking with BSA. To each well was then added recombinant CD47-AP followed by washing. Bound CD47-AP was then detected by assay for alkaline phosphatase after addition of appropriate substrate.
Since the above results and those of others (Jiang, et al J. Biol. Chem., 274: 559, Seiffert, et al., Blood, 94: 3633, Han, et al., J. Biol. Chem., 275: 37984, Oldenborg, et al., Science, 288: 2051) strongly implicate CD47 as a membrane receptor for SIRPα, experiments were performed to test the direct binding of the IgV loop of CD47 to SIRPα (FIG. 2B). A recombinant CD47 IgV loop fused to alkaline phosphatase (CD47-AP) was constructed as detailed in the methods and expressed in mammalian (CHO) cells in order to allow for proper folding and glycosylation. The expressed CD47-AP fusion protein was then purified by immunoaffinity chromatography using anti CD47 mAb PF3.1-Sepharose. The structure of CD47 IgV domain in the purified CD47-AP was further tested for the ability to react with multiple functionally blocking anti-CD47 extracellular domain-reactive mAbs (Liu, et al., J. Biol. Chem., 276: 40156). […]

[2] = molecular target: T2, CD47-SIRPα1 binding (CD47-AP / SIRPα1-GST) (Homo sapiens, UniProt P78324); experiment: CD47-AP binding to immobilized SIRPα1-GST (alkaline phosphatase activity); details: SIRPα-GST coated 2 μg/ml, CD47-AP 1-2 μg/ml
T2 construct: Microtiter plates were coated with SIRPα1 extracellular domain fusion protein (SIRPα1-GST, 1 μg/ml) for 2 hr; A construct consisting of the extracellular domain of human CD47 fused to the catalytic domain of human placental AP; made in house
T2 sequence (P78324 31-373 limits assumed): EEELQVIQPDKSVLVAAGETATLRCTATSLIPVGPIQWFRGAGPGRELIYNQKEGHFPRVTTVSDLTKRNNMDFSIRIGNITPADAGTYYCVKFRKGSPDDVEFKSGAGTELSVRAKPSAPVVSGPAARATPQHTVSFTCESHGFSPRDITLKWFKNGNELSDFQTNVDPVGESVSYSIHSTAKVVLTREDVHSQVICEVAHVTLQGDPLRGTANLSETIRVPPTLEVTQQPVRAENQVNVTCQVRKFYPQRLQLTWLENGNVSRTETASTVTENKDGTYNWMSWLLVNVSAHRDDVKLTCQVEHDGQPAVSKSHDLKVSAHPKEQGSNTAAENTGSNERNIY
Experimental: as §1
FIGS. 6A-6C are graphs that illustrate the effects of synthetic peptides on CD47-SIRPα binding. FIG. 6A illustrates the effect of peptide C5/D5.1 on CD47-SIRPα binding. […] After blocking, CD47-AP was added in the absence or presence of synthetic peptides C5/D5.1 and control peptides C5/D5.4, C5/D5.11 and C5/D5.12 (used as 1 mM each). “*” p<0.01. CD47-AP binding was then detected by assay of alkaline phosphatase activity and normalized with respect to binding in the absence of any peptide (CD47-AP only). FIG. 6B illustrates the effect of dose-dependent inhibition of CD47-SIRPα1 binding by peptide C5/D5.1 performed as in FIG. 6A but with increasing concentrations of peptide as indicated. […] Binding of these proteins were detected by a goat anti-GST antibody followed by peroxidase conjugated anti-goat secondary (for detecting SIRPα1-GST) or directly developed for alkaline phosphatase activity (for detecting CD47-AP). […]

mAb C5/D5 = experiment: Peptide competition of phage binding to C5/D5 by ELISA; details: up to 10 mM
Experimental: To mimic the possible constrained structure in phage, in vitro oxidation was performed after peptide synthesis to introduce disulfide bonds between Cysteine residues in these peptides. […] There are total four tryptophan (W) residues in CD47. W2 is part of the signal peptide and therefore is not present in the mature protein. W58 is present in the N-terminus extracellular IgV-like domain of CD47 and is conserved among many IgV super family members. W136 is also located in the putative extracellular domain whereas W157 is thought to be in a transmembrane region of the protein (Lindberg, et al., J. Cell Biol., 123(2): 485-96, 1993). Amino acids Arginine and Valine (RV/L), present in many selected CL10 and LL9 phages are adjacent in CD47 at amino acid position 132-133, two amino acids upstream from W136. Both amino acids R and V are also found close to W58. Thus, the C5/D5-binding sequence on CD47 is likely to comprise several distant residues brought into proximity by the folding of the protein.
Antibody phage binding assays were performed in microtiter plate wells (Limbro-Titertek, Flow Laboratories) which were coated with relevant antibodies (20 μg/ml) for two hours at room temperature. All subsequent incubations were performed at room temperature. […] Microtiter wells were then analyzed in a microtiter plate reader at 405 nanometers (nm).

| Compound | solubility [1] [mM] | further results |
| --- | --- | --- |
| CC[C@H](C)[C@@H]1NC(=O)[C@H](C(C)C)NC(=O)[C@H](CCCNC(=N)N)NC(=O)[C@H](CCC(=O)O)NC(=O)[C@@H](N)CSSC[C@@H](C(=O)O)NC(=O)[C@H](CCCNC(=N)N)NC(=O)[C@H](C(C)C)NC(=O)[C@H](Cc2c[nH]c3ccccc23)NC(=O)CNC(=O)[C@H]([C@@H](C)O)NC(=O)CNC1=O [C5/D5.1, CERVIGTGWVRC] (H-CERVIGTGWVRC-OH; disulfide 1-12; N-terminus and C-terminus assumed) | 10 (≈ 13.8 mg/mL) | – |
| CC[C@H](C)[C@H](NC(=O)[C@@H](NC(=O)[C@H](CCCNC(=N)N)NC(=O)[C@@H](N)CCC(=O)O)C(C)C)C(=O)NCC(=O)N[C@H](C(=O)NCC(=O)N[C@@H](Cc1c[nH]c2ccccc12)C(=O)N[C@H](C(=O)N[C@@H](CCCNC(=N)N)C(=O)O)C(C)C)[C@@H](C)O [C5/D5.4, ERVIGTGWVR] (H-ERVIGTGWVR-OH; N-terminus and C-terminus assumed) | 10 (≈ 11.7 mg/mL) | – |
| CC[C@H](C)[C@@H]1NC(=O)[C@H](C(C)C)NC(=O)CNC(=O)[C@H](CCCNC(=N)N)NC(=O)[C@H](Cc2c[nH]c3ccccc23)NC(=O)[C@H]([C@@H](C)O)NC(=O)[C@H](CCCNC(=N)N)NC(=O)[C@H](C(C)C)NC(=O)CNC(=O)[C@@H](N)CSSC[C@@H](C(=O)O)NC(=O)[C@H](CCC(=O)O)NC1=O [C5/D5.5, CGVRTWRGVIEC] (H-CGVRTWRGVIEC-OH; disulfide 1-12; N-terminus and C-terminus assumed) | 2 (≈ 2.75 mg/mL) | solubility (in words) [1]: limited solubility |
| CC[C@H](C)[C@@H]1NC(=O)[C@H](C(C)C)NC(=O)[C@H](CCCNC(=N)N)NC(=O)[C@H](Cc2c[nH]cn2)NC(=O)[C@@H](N)CSSC[C@@H](C(=O)O)NC(=O)[C@H](CCCNC(=N)N)NC(=O)[C@H](C(C)C)NC(=O)[C@H](Cc2c[nH]c3ccccc23)NC(=O)CNC(=O)[C@H]([C@@H](C)O)NC(=O)CNC1=O [C5/D5.11, CHRVIGTGWVRC] (H-CHRVIGTGWVRC-OH; disulfide 1-12; N-terminus and C-terminus assumed) | 10 (≈ 13.8 mg/mL) | – |
| CC(C)[C@@H]1NC(=O)[C@H](Cc2c[nH]c3ccccc23)NC(=O)CNC(=O)[C@H](Cc2c[nH]cn2)NC(=O)CNC(=O)[C@@H]2CCCN2C(=O)[C@H](C(C)C)NC(=O)[C@H](CCCNC(=N)N)NC(=O)[C@H](Cc2c[nH]cn2)NC(=O)[C@@H](N)CSSC[C@@H](C(=O)O)NC(=O)[C@H](CCCNC(=N)N)NC1=O [C5/D5.12, CHRVPGHGWVRC] (H-CHRVPGHGWVRC-OH; disulfide 1-12; N-terminus and C-terminus assumed) | 1 (≈ 1.4 mg/mL) | – |
| CD47-AP: recombinant CD47 IgV loop fused to alkaline phosphatase | – | binding of CD47-AP to SIRPβ-GST (SIRPβ-GST): lack of binding; binding of AP fusion protein to SIRPα-GST (AP activity, OD405) [2]: bound |
| CRRVIGRVGCGC (listed as Homo sapiens) [C5/D5.3] | – | inhibitory effect of peptide on phage binding to C5/D5 (mAb C5/D5): no inhibitory effects |
